Experimental data reported in patent publication US10538512B2, “Aminoacylindazole immunomodulators for treatment of autoimmune diseases” (The Rockefeller University, priority 2016, dated 2020).

Assays:
Human alpha-thrombin = target: T1, Human alpha-thrombin (Homo sapiens, UniProt P00734); assay: Thrombin counterscreen for selectivity, fluorogenic substrate assay; format: biochemical; conditions: Human alpha-thrombin 12.5 nM, Boc-Val-Pro-Arg-AMC 20 μM, 10 min preincubation
T1 construct: Human alpha-thrombin (Enzyme Research Labs); purchased Enzyme Research Labs
Method: Counterscreens for Selectivity:
In a 96-well white opaque plate, 80 μl of assay buffer was added to each well. Test compounds were added, and serially diluted as above, to generate a concentration range of approximately 1-100 μM. […] 80 μl of this enzyme solution was added to the assay wells. The enzyme/compound mixtures were incubated for 10 minutes at room temperature. Fluorogenic substrate (Boc-Val-Pro-Arg-7-amido-4-methylcoumarin; Sigma) was added to assay wells at a final concentration of 20 μM. The assay plate was spun for 1 minute at 1500 g and then read at 37° C. in a SpectraMax M2 plate reader (λex=380 nm and λem=460 nm). Activity was quantified as the rate of change in fluorescence, which corresponds to the rate of substrate cleavage.

Human FXIIa = target: T2, Human FXIIa (Homo sapiens, UniProt P00748); assay: Factor XIIa (FXIIa) inhibitory activity, chromogenic substrate assay; format: biochemical; conditions: Human FXIIa 12.5 nM, Pefachrome XIIa 400 μM, 10 min preincubation
T2 construct: active coagulation factor XII (FXIIa); purchased Enzyme Research Labs
T2 sequence (P00748 373-615 limits assumed): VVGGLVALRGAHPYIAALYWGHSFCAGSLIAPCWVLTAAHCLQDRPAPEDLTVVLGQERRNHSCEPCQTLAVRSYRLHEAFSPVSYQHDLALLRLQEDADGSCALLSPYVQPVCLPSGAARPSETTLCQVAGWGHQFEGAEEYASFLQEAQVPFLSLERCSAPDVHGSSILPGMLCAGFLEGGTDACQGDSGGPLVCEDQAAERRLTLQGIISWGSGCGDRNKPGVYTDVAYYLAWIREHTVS
T2 sequence (P00748 20-372 partner limits assumed): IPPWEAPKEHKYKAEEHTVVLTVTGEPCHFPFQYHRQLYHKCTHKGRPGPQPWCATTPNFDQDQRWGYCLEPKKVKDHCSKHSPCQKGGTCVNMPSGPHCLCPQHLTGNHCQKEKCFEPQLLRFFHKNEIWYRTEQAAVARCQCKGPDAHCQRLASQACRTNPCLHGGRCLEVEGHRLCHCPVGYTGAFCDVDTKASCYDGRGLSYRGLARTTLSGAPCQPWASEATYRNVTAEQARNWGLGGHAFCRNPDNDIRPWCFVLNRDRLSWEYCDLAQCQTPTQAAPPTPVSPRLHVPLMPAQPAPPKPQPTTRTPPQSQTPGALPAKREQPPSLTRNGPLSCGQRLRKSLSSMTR
In short: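 Activity was taken as the rate of absorbance increase at 405 nm, read at 37 °C after adding 400 μM (final) Pefachrome XIIa. Compounds spanning roughly 1–100 μM were first preincubated with enzyme for 10 min at room temperature in HEPES pH 7.4-buffered HBSS/TBS-Tween.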

| Structure (SMILES) | IC50 (Human alpha-thrombin) [µM] | IC50 (Human FXIIa) [µM] |
| --- | --- | --- |
| Nc1c2c(nn1C(=O)c1c[nH]c3ccccc13)CCCC2 [Example 42, (3-amino-4,5,6,7-tetrahydroindazol-2-yl)(1H-indol-3-yl)methanone] | > 100 | 11 |
| Nc1c2c(nn1C(=O)c1cccc3[nH]c(Cl)cc13)CCCC2 (single isomer, unassigned) [Example 55, (3-amino-4,5,6,7-tetrahydroindazol-2-yl)(2-chloro-1H-indol-4-yl)methanone] | 20 | 0.01 |
| CCN1CCC(C(=O)n2nc3c(c2N)CCCC3)c2ccccc21 (single isomer, unassigned) [Example 74, (3-amino-4,5,6,7-tetrahydroindazol-2-yl)(1-ethyl-1,2,3,4-tetrahydroquinolin-4-yl)methanone] | > 100 | 0.5 |
| Nc1nn(C(=O)c2cccc3[nH]c(Cl)cc23)c2c1CCCC2 (single isomer, unassigned) [Example 56, (3-amino-4,5,6,7-tetrahydroindazol-1-yl)(2-chloro-1H-indol-4-yl)methanone] | > 100 | 29 |
| Nc1c2c(nn1C(=O)[C@H]1CCNc3ccc(F)cc31)CC[C@H](F)C2 (single isomer, unassigned) [Example 140, ((5S*)-3-amino-5-fluoro-4,5,6,7-tetrahydroindazol-2-yl)((4S*)-6-fluoro-1,2,3,4-tetrahydroquinolin-4-yl)methanone] | > 60 | 0.2 |
| CC(C)n1ccc2c(C(=O)n3nc4c(c3N)CCCC4)cccc21 [Example 29, (3-amino-4,5,6,7-tetrahydroindazol-2-yl)(1-isopropyl-1H-indol-4-yl)methanone] | > 50 | 0.15 |
| CCc1cc2c(C(=O)n3nc4c(c3N)CCCC4)cccc2n1CC (single isomer, unassigned) [Example 68, (3-amino-4,5,6,7-tetrahydroindazol-2-yl)(1,2-diethyl-1H-indol-4-yl)methanone] | 40 | 0.01 |
| Nc1nn(C(=O)c2cccc3[nH]c(Br)cc23)c2c1CCCC2 (single isomer, unassigned) [Example 63, (3-amino-4,5,6,7-tetrahydroindazol-1-yl)(2-bromo-1H-indol-4-yl)methanone] | > 100 | 65 |
| Nc1c2c(nn1C(=O)[C@H]1CCNc3ccccc31)CC[C@@H](O)C2 (single isomer, unassigned) [Example 165, ((5R*)-3-amino-5-hydroxy-4,5,6,7-tetrahydroindazol-2-yl)((4S*)-1,2,3,4-tetrahydroquinolin-4-yl)methanone] | > 80 | 0.35 |
| Nc1c2c(nn1C(=O)[C@@H]1CCNc3ccccc31)CC[C@H](O)C2 (single isomer, unassigned) [Example 169, ((5S*)-3-amino-5-hydroxy-4,5,6,7-tetrahydroindazol-2-yl)((4R*)-1,2,3,4-tetrahydroquinolin-4-yl)methanone] | > 100 | 60 |
| Cc1cccc2c1NCC[C@@H]2C(=O)n1nc2c(c1N)CC[C@H](O)C2 (single isomer, unassigned) [Example 198, ((6S*)-3-amino-6-hydroxy-4,5,6,7-tetrahydroindazol-2-yl)((4S*)-8-methyl-1,2,3,4-tetrahydroquinolin-4-yl)methanone] | > 100 | 0.1 |
| Nc1nn(C(=O)c2cccc3c2ccn3-c2ccccc2)c2c1CCCC2 (single isomer, unassigned) [Example 21, (3-amino-4,5,6,7-tetrahydroindazol-1-yl)(1-phenyl-1H-indol-4-yl)methanone] | > 100 |  |

Second part, the compound after the results:

| IC50 (Human alpha-thrombin) [µM] | IC50 (Human FXIIa) [µM] | Structure (SMILES) |
| --- | --- | --- |
| 36 | 0.06 | CCn1ccc2c(C(=O)n3nc4c(c3N)CCCC4)cccc21 [Example 28, (3-amino-4,5,6,7-tetrahydroindazol-2-yl)(1-ethyl-1H-indol-4-yl)methanone] |
| > 100 | > 100 | CCN1CCC(C(=O)n2nc(N)c3c2CCCC3)c2ccccc21 (single isomer, unassigned) [Example 75, (3-amino-4,5,6,7-tetrahydroindazol-1-yl)(1-ethyl-1,2,3,4-tetrahydroquinolin-4-yl)methanone] |
| 40 | 0.06 | Cc1cc2c(C(=O)n3nc4c(c3N)CCCC4)cccc2o1 (single isomer, unassigned) [Example 58, (3-amino-4,5,6,7-tetrahydroindazol-2-yl)(2-methylbenzofuran-4-yl)methanone] |
| > 100 | 0.6 | Nc1c2c(nn1C(=O)[C@H]1CCNc3ccc(F)cc31)C[C@@H](O)CC2 (single isomer, unassigned) [Example 183, ((6S*)-3-amino-6-hydroxy-4,5,6,7-tetrahydroindazol-2-yl)((4S*)-6-fluoro-1,2,3,4-tetrahydroquinolin-4-yl)methanone] |
| 77 | 5.6 | Nc1c2c(nn1C(=O)C1OCCc3ccccc31)CCCC2 (single isomer, unassigned) [Example 13, (3-Amino-4,5,6,7-tetrahydroindazol-2-yl)(isochroman-1-yl)methanone] |
| > 100 | 2 | CO[C@H]1CCc2nn(C(=O)[C@H]3CCNc4ccc(F)cc43)c(N)c2C1 (single isomer, unassigned) [Example 177, ((5S*)-3-amino-5-methoxy-4,5,6,7-tetrahydroindazol-2-yl)((4S*)-6-fluoro-1,2,3,4-tetrahydroquinolin-4-yl)methanone] |
| > 100 | > 100 | Nc1nn(C(=O)c2cccc3c2CC(=O)N3)c2c1CCCC2 (single isomer, unassigned) [Example 65, 4-(3-amino-4,5,6,7-tetrahydro-1H-indazole-1-carbonyl)indolin-2-one] |
| > 90 | 0.08 | Nc1c2c(nn1C(=O)[C@H]1CCNc3ccc(F)cc31)CC[C@H](N)C2 (stereo in doubt) [Example 192, ((5S*)-3,5-diamino-4,5,6,7-tetrahydroindazol-2-yl)((4S*)-6-fluoro-1,2,3,4-tetrahydroquinolin-4-yl)methanone] |
| > 90 | > 90 | Nc1nn(C(=O)[C@H]2CCNc3ccccc32)c2c1C[C@@H](O)CC2 (single isomer, unassigned) [Example 171, ((5S*)-3-amino-5-hydroxy-4,5,6,7-tetrahydroindazol-1-yl)((4S*)-1,2,3,4-tetrahydroquinolin-4-yl)methanone] |
| > 100 | 5 | CCc1csc(C)c1C(=O)n1nc2c(c1N)CCCC2 (single isomer, unassigned) [Example 18, (3-Amino-4,5,6,7-tetrahydroindazol-2-yl)(4-ethyl-2-methylthiophen-3-yl)methanone] |
| > 100 | 90 | Cc1cc2c(C(=O)N3N=C(N)C4CCCCC43)cccc2[nH]1 (centres unmarked) [Example 10, (3-amino-3a,4,5,6,7,7a-hexahydroindazol-1-yl)(2-methyl-1H-indol-4-yl)methanone] |
| > 100 | 17.5 | Nc1c2c(nn1C(=O)c1cccc3c1ccn3-c1ccccc1)CCCC2 (single isomer, unassigned) [Example 20, (3-amino-4,5,6,7-tetrahydroindazol-2-yl)(1-phenyl-1H-indol-4-yl)methanone] |
| 60 | 60 | Nc1nn(C(=O)c2ccnc3cc(Cl)ccc23)c2c1CCCC2 [Example 124, (3-amino-4,5,6,7-tetrahydro-2H-indazol-1-yl)(7-chloroquinolin-4-yl)methanone] |
| > 100 | 0.3 | Nc1c2c(nn1C(=O)C1CCNc3ccccc31)CCCC2 (single isomer, unassigned) [Example 76, (3-amino-4,5,6,7-tetrahydroindazol-2-yl)(1,2,3,4-tetrahydroquinolin-4-yl)methanone] |
| 55 |  | C=Cc1cc2c(C(=O)n3nc(N)c4c3CCCC4)cccc2[nH]1 (single isomer, unassigned) [Example 71, (3-amino-4,5,6,7-tetrahydroindazol-1-yl)(2-vinyl-1H-indol-4-yl)methanone] |
| > 80 |  | CN1CCC(C(=O)n2nc(N)c3c2CCCC3)c2ccccc21 (single isomer, unassigned) [Example 26, (3-amino-4,5,6,7-tetrahydroindazol-1-yl)(1-methyl-1,2,3,4-tetrahydroquinolin-4-yl)methanone] |
